Assay results as given in patent publication US20210300936A1, “PYRAZOLOTRIAZOLOPYRIMIDINE DERIVATIVES AS A2A RECEPTOR ANTAGONIST” (BEIGENE, LTD., priority 2018, published 2021).

Each compound was assayed against human A2A receptor (A2AR) (Homo sapiens, UniProt P29274) (assay: Luciferase reporter assay (HEK293-A2AR-luc2p/CRE/Hygro cells, 3 nM CGS21680)). Details: 3 nM CGS21680, 5 h incubation.
Type: cell-based
In short: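 Antagonist (0.1–10000 nM) and 3 nM CGS21680 were co-added for 5 h to stable HEK293-A2AR-luc2p/CRE cells, 18 h after seeding in 1% FBS medium containing adenosine deaminase. Luminescence was normalized to agonist alone (100%), and IC50 came from the dose–inhibition curve.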

Sequence of human A2A receptor (A2AR) (P29274 whole entry): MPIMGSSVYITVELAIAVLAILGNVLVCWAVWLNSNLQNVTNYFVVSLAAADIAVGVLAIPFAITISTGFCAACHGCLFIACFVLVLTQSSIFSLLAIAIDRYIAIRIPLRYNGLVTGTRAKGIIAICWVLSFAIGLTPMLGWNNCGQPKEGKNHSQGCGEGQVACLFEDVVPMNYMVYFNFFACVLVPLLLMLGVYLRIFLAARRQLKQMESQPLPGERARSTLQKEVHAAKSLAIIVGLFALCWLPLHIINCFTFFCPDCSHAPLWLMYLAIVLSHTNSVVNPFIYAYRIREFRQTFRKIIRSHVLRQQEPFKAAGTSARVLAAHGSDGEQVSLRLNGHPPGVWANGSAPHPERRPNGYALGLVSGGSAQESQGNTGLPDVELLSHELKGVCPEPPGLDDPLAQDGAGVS

Row | SMILES | IC50
1 | COCCOc1ccc(N2CCN(C(=O)C(C)(c3ccccc3)n3ncc4c3nc(N)n3nc(-c5ccco5)nc43)CC2)c(OC)c1 (centres unmarked) [Compound A106, 2-(5-amino-2-(furan-2-yl)-7H-pyrazolo[4,3-e][1,2,4]triazolo[1,5-c]pyrimidin-7-yl)-1-(4-(2-methoxy-4-(2-methoxyethoxy)phenyl)piperazin-1-yl)-2-phenylpropan-1-one] | 8.5 nM
2 | CNCCOc1ccc(N2CCN(C(=O)C(C)(c3ccccc3)n3ncc4c3nc(N)n3nc(-c5ccco5)nc43)CC2)cc1 (centres unmarked) [Compound A107, 2-(5-amino-2-(furan-2-yl)-7H-pyrazolo[4,3-e][1,2,4]triazolo[1,5-c]pyrimidin-7-yl)-1-(4-(4-(2-(methylamino)ethoxy)phenyl)piperazin-1-yl)-2-phenylpropan-1-one] | 4.8 nM
3 | CC(C(=O)N1CCN(c2ccc(OCCO)cc2)CC1)(c1ccccc1)n1ncc2c1nc(N)n1nc(-c3ccco3)nc21 (centres unmarked) [Compound A108, 2-(5-amino-2-(furan-2-yl)-7H-pyrazolo[4,3-e][1,2,4]triazolo[1,5-c]pyrimidin-7-yl)-1-(4-(4-(2-hydroxyethoxy)phenyl)piperazin-1-yl)-2-phenylpropan-1-one] | 3.5 nM
4 | CN(C)C(=O)C(c1ccccc1)n1ncc2c1nc(N)n1nc(-c3ccco3)nc21 (centres unmarked) [Compound B1, 2-(5-amino-2-(furan-2-yl)-7H-pyrazolo[4,3-e][1,2,4]triazolo[1,5-c]pyrimidin-7-yl)-N,N-dimethyl-2-phenylacetamide] | 15.2 nM
5 | Nc1nc2c(cnn2C(C(=O)N2CCCCC2)c2ccccc2)c2nc(-c3ccco3)nn12 (centres unmarked) [Compound B2, 2-(5-amino-2-(furan-2-yl)-7H-pyrazolo[4,3-e][1,2,4]triazolo[1,5-c]pyrimidin-7-yl)-2-phenyl-1-(piperidin-1-yl)ethan-1-one] | 2.9 nM
6 | Nc1nc2c(cnn2C(C(=O)N2CCc3ccccc3C2)c2ccccc2)c2nc(-c3ccco3)nn12 (centres unmarked) [Compound B3, 2-(5-amino-2-(furan-2-yl)-7H-pyrazolo[4,3-e][1,2,4]triazolo[1,5-c]pyrimidin-7-yl)-1-(3,4-dihydroisoquinolin-2(1H)-yl)-2-phenylethan-1-one] | 1.9 nM
7 | Nc1nc2c(cnn2C(C(=O)N2CCCc3ccccc32)c2ccccc2)c2nc(-c3ccco3)nn12 (centres unmarked) [Compound B4, 2-(5-amino-2-(furan-2-yl)-7H-pyrazolo[4,3-e][1,2,4]triazolo[1,5-c]pyrimidin-7-yl)-1-(3,4-dihydroquinolin-1(2H)-yl)-2-phenylethan-1-one] | 2.9 nM
8 | Nc1nc2c(cnn2C(C(=O)N2CCc3ccc(Cl)cc3C2)c2ccccc2)c2nc(-c3ccco3)nn12 (centres unmarked) [Compound B5, 2-(5-amino-2-(furan-2-yl)-7H-pyrazolo[4,3-e][1,2,4]triazolo[1,5-c]pyrimidin-7-yl)-1-(7-chloro-3,4-dihydroisoquinolin-2(1H)-yl)-2-phenylethan-1-one] | 3 nM
9 | Nc1nc2c(cnn2C(C(=O)N2CCc3ccc(OC(F)(F)F)cc3C2)c2ccccc2)c2nc(-c3ccco3)nn12 (centres unmarked) [Compound B6, 2-(5-amino-2-(furan-2-yl)-7H-pyrazolo[4,3-e][1,2,4]triazolo[1,5-c]pyrimidin-7-yl)-2-phenyl-1-(7-(trifluoromethoxy)-3,4-dihydroisoquinolin-2(1H)-yl)ethan-1-one] | 7 nM
10 | Nc1nc2c(cnn2C(C(=O)N2CCc3cc(F)ccc3C2)c2ccccc2)c2nc(-c3ccco3)nn12 (centres unmarked) [Compound B7, 2-(5-amino-2-(furan-2-yl)-7H-pyrazolo[4,3-e][1,2,4]triazolo[1,5-c]pyrimidin-7-yl)-1-(6-fluoro-3,4-dihydroisoquinolin-2(1H)-yl)-2-phenylethan-1-one] | 2 nM
11 | Nc1nc2c(cnn2C(C(=O)N2CCc3ccncc3C2)c2ccccc2)c2nc(-c3ccco3)nn12 (centres unmarked) [Compound B8, 2-(5-amino-2-(furan-2-yl)-7H-pyrazolo[4,3-e][1,2,4]triazolo[1,5-c]pyrimidin-7-yl)-1-(3,4-dihydro-2,7-naphthyridin-2(1H)-yl)-2-phenylethan-1-one] | 4 nM
12 | Nc1nc2c(cnn2C(C(=O)N2CCc3cccnc3C2)c2ccccc2)c2nc(-c3ccco3)nn12 (centres unmarked) [Compound B9, 2-(5-amino-2-(furan-2-yl)-7H-pyrazolo[4,3-e][1,2,4]triazolo[1,5-c]pyrimidin-7-yl)-1-(5,8-dihydro-1,7-naphthyridin-7(6H)-yl)-2-phenylethan-1-one] | 3.4 nM
13 | Nc1nc2c(cnn2C(C(=O)N2CCc3cccc(F)c3C2)c2ccccc2)c2nc(-c3ccco3)nn12 (centres unmarked) [Compound B10, 2-(5-amino-2-(furan-2-yl)-7H-pyrazolo[4,3-e][1,2,4]triazolo[1,5-c]pyrimidin-7-yl)-1-(8-fluoro-3,4-dihydroisoquinolin-2(1H)-yl)-2-phenylethan-1-one] | 0.8 nM
14 | Nc1nc2c(cnn2C(C(=O)N2CCc3ccc(F)cc3C2)c2ccccc2)c2nc(-c3ccco3)nn12 (centres unmarked) [Compound B11, 2-(5-amino-2-(furan-2-yl)-7H-pyrazolo[4,3-e][1,2,4]triazolo[1,5-c]pyrimidin-7-yl)-1-(7-fluoro-3,4-dihydroisoquinolin-2(1H)-yl)-2-phenylethan-1-one] | 2.2 nM
15 | Nc1nc2c(cnn2C(C(=O)N2CCc3c(F)cccc3C2)c2ccccc2)c2nc(-c3ccco3)nn12 (centres unmarked) [Compound B12, 2-(5-amino-2-(furan-2-yl)-7H-pyrazolo[4,3-e][1,2,4]triazolo[1,5-c]pyrimidin-7-yl)-1-(5-fluoro-3,4-dihydroisoquinolin-2(1H)-yl)-2-phenylethan-1-one] | 2.5 nM
16 | Nc1nc2c(cnn2C(C(=O)N2CCc3ncccc3C2)c2ccccc2)c2nc(-c3ccco3)nn12 (centres unmarked) [Compound B13, 2-(5-amino-2-(furan-2-yl)-7H-pyrazolo[4,3-e][1,2,4]triazolo[1,5-c]pyrimidin-7-yl)-1-(7,8-dihydro-1,6-naphthyridin-6(5H)-yl)-2-phenylethan-1-one] | 2.8 nM
17 | COCCOc1ccc2c(c1)CN(C(=O)C(c1ccccc1)n1ncc3c1nc(N)n1nc(-c4ccco4)nc31)CC2 (centres unmarked) [Compound B14, 2-(5-amino-2-(furan-2-yl)-7H-pyrazolo[4,3-e][1,2,4]triazolo[1,5-c]pyrimidin-7-yl)-1-(7-(2-methoxyethoxy)-3,4-dihydroisoquinolin-2(1H)-yl)-2-phenylethan-1-one] | 5.7 nM
18 | COCCOc1ccc2c(c1)CCN(C(=O)C(c1ccccc1)n1ncc3c1nc(N)n1nc(-c4ccco4)nc31)C2 (centres unmarked) [Compound B15, 2-(5-amino-2-(furan-2-yl)-7H-pyrazolo[4,3-e][1,2,4]triazolo[1,5-c]pyrimidin-7-yl)-1-(6-(2-methoxyethoxy)-3,4-dihydroisoquinolin-2(1H)-yl)-2-phenylethan-1-one] | 2.2 nM
19 | COCCOc1cccc2c1CN(C(=O)C(c1ccccc1)n1ncc3c1nc(N)n1nc(-c4ccco4)nc31)CC2 (centres unmarked) [Compound B16, 2-(5-amino-2-(furan-2-yl)-7H-pyrazolo[4,3-e][1,2,4]triazolo[1,5-c]pyrimidin-7-yl)-1-(8-(2-methoxyethoxy)-3,4-dihydroisoquinolin-2(1H)-yl)-2-phenylethan-1-one] | 5.6 nM
20 | Cc1ccc2c(c1)CN(C(=O)C(c1ccccc1)n1ncc3c1nc(N)n1nc(-c4ccco4)nc31)CC2 (centres unmarked) [Compound B17, 2-(5-amino-2-(furan-2-yl)-7H-pyrazolo[4,3-e][1,2,4]triazolo[1,5-c]pyrimidin-7-yl)-1-(7-methyl-3,4-dihydroisoquinolin-2(1H)-yl)-2-phenylethan-1-one] | 1.3 nM
